Source: the NIST ThermoML archive (doi:10.1016/j.fluid.2014.10.016)

Columns and labels:
[1] = 313.15 K; Liquid; Closed cell (Static) method
[2] = excess molar enthalpy (molar enthalpy of mixing); xn = mol fraction of the nth substance listed; details: 101 kPa, Liquid, Flow calorimetry

CC(C)CC(C)(C)C [2,2,4-trimethylpentane]
Details | vapor or sublimation pressure [kPa]
[1] | 12.97

CC(C)CC(C)(C)C [2,2,4-trimethylpentane] + CCCC(C)O
[2], x2 = 0
Details | excess molar enthalpy [kcal/mol]
298.15 K | 0
313.15 K | 0

CCCCCCC [heptane]
Details | vapor or sublimation pressure [kPa]
[1] | 12.31

CCCCCCC [heptane] + CCCC(C)O
[2], x2 = 0
Details | excess molar enthalpy [kcal/mol]
298.15 K | 0
313.15 K | 0

CCCC(C)O (configuration not stated) [pentan-2-ol]
Details | vapor or sublimation pressure [kPa]
[1] | 2.295

CCCC(C)O (configuration not stated) [pentan-2-ol] + CC(C)CC(C)(C)C
excess molar enthalpy [kcal/mol], [2]
Details | 298.15 K | 313.15 K
x1 = 0.0507 | 0.114 | 0.146
x1 = 0.0997 | 0.154 | –
x1 = 0.0998 | – | 0.196
x1 = 0.1498 | 0.173 | –
x1 = 0.1499 | – | 0.224
x1 = 0.2009 | 0.19 | 0.243
x1 = 0.2499 | – | 0.258
x1 = 0.25 | 0.202 | –
x1 = 0.3022 | 0.213 | –
x1 = 0.3023 | – | 0.268
x1 = 0.3502 | – | 0.271
x1 = 0.3503 | 0.22 | –
x1 = 0.401 | – | 0.273
x1 = 0.4011 | 0.227 | –
x1 = 0.452 | – | 0.272
x1 = 0.4521 | 0.229 | –
x1 = 0.501 | – | 0.267
x1 = 0.5011 | 0.229 | –
x1 = 0.552 | – | 0.26
x1 = 0.5521 | 0.22 | –
x1 = 0.601 | 0.21 | 0.248
x1 = 0.6516 | – | 0.231
x1 = 0.6517 | 0.196 | –
x1 = 0.7018 | – | 0.211
x1 = 0.7019 | 0.177 | –
x1 = 0.7516 | – | 0.185
x1 = 0.7517 | 0.155 | –
x1 = 0.8008 | – | 0.158
x1 = 0.8009 | 0.128 | –
x1 = 0.851 | 0.0997 | 0.122
x1 = 0.9002 | 0.0677 | 0.0855
x1 = 0.95 | 0.0338 | 0.0441
x1 = 1 | 0 | 0

CCCC(C)O (configuration not stated) [pentan-2-ol] + CCCCCCC
excess molar enthalpy [kcal/mol], [2]
Details | 298.15 K | 313.15 K
x1 = 0.0504 | – | 0.146
x1 = 0.0505 | 0.117 | –
x1 = 0.0996 | – | 0.197
x1 = 0.0997 | 0.151 | –
x1 = 0.1475 | – | 0.223
x1 = 0.1477 | 0.173 | –
x1 = 0.1967 | – | 0.242
x1 = 0.1969 | 0.19 | –
x1 = 0.2469 | – | 0.256
x1 = 0.2472 | 0.203 | –
x1 = 0.2956 | – | 0.265
x1 = 0.2962 | 0.211 | –
x1 = 0.3455 | – | 0.27
x1 = 0.346 | 0.219 | –
x1 = 0.3962 | – | 0.273
x1 = 0.3967 | 0.225 | –
x1 = 0.4454 | – | 0.273
x1 = 0.4459 | 0.227 | –
x1 = 0.4953 | – | 0.27
x1 = 0.4958 | 0.226 | –
x1 = 0.5458 | – | 0.263
x1 = 0.5463 | 0.221 | –
x1 = 0.5968 | – | 0.251
x1 = 0.5972 | 0.212 | –
x1 = 0.6462 | – | 0.237
x1 = 0.6466 | 0.2 | –
x1 = 0.6959 | – | 0.214
x1 = 0.6963 | 0.181 | –
x1 = 0.7477 | – | 0.19
x1 = 0.748 | 0.159 | –
x1 = 0.7979 | – | 0.161
x1 = 0.7981 | 0.132 | –
x1 = 0.8481 | – | 0.127
x1 = 0.8483 | 0.103 | –
x1 = 0.8984 | – | 0.088
x1 = 0.8985 | 0.0706 | –
x1 = 0.9485 | – | 0.0461
x1 = 0.9486 | 0.0359 | –
x1 = 1 | 0 | 0
